Measurements published in PubChem BioAssay AID248 (DTP/NCI, 2004).
Values joined by “and” are separate entries in the source; they are usually repeats but may differ in a detail not shown here. Identical values can stand only once. Inconclusive results and toxic doses are left out. No stated cut-off is given here; in the data, active means T/C of 150% or more; inactive means T/C below 125%.

System: L1210 leukemia ip in BDF1 mice, survival T/C
Experiment: NCI In Vivo Anticancer Drug Screen. Data for tumor model L1210 Leukemia (intraperitoneal) in B6D2F1 (BDF1) mice
Conditions: endpoint: mean survival time, higher = longer survival
Method in brief: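 Each compound was tested against a transplantable tumor grown in mice. The endpoint was survival, with treated animals benchmarked against vehicle controls as a simple ratio.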

[1] = dose: 100.0 mg/kg/injection, schedule: Q04DX003 (ip), vehicle: saline with Tween-80
[2] = dose: 200.0 mg/kg/injection, schedule: Q04DX003 (ip), vehicle: saline with Tween-80
[3] = dose: 400.0 mg/kg/injection, schedule: Q04DX003 (ip), vehicle: saline with Tween-80
[4] = dose: 100.0 mg/kg/injection, schedule: Q04DX003 (ip), vehicle: Klucel (hydroxypropylcellulose) (HPC)
[5] = dose: 200.0 mg/kg/injection, schedule: Q04DX003 (ip), vehicle: Klucel (hydroxypropylcellulose) (HPC)
[6] = dose: 400.0 mg/kg/injection, schedule: Q04DX003 (ip), vehicle: Klucel (hydroxypropylcellulose) (HPC)
[7] = dose: 100.0 mg/kg/injection, schedule: Q04DX003 (ip), vehicle: saline
[8] = dose: 200.0 mg/kg/injection, schedule: Q04DX003 (ip), vehicle: saline
[9] = dose: 400.0 mg/kg/injection, schedule: Q04DX003 (ip), vehicle: saline
[10] = dose: 100.0 mg/kg/injection, schedule: Q01DX009 (ip), vehicle: Klucel (hydroxypropylcellulose) (HPC)
[11] = dose: 200.0 mg/kg/injection, schedule: Q01DX009 (ip), vehicle: Klucel (hydroxypropylcellulose) (HPC)
[12] = dose: 400.0 mg/kg/injection, schedule: Q01DX009 (ip), vehicle: Klucel (hydroxypropylcellulose) (HPC)
[13] = dose: 100.0 mg/kg/injection, schedule: Q01DX009 (ip), vehicle: saline with Tween-80
[14] = dose: 200.0 mg/kg/injection, schedule: Q01DX009 (ip), vehicle: saline with Tween-80
[15] = dose: 50.0 mg/kg/injection, schedule: Q01DX001 (ip), vehicle: carboxymethylcellulose (CMC)
[16] = dose: 100.0 mg/kg/injection, schedule: Q01DX001 (ip), vehicle: carboxymethylcellulose (CMC)
[17] = dose: 200.0 mg/kg/injection, schedule: Q01DX001 (ip), vehicle: carboxymethylcellulose (CMC)
[18] = dose: 400.0 mg/kg/injection, schedule: Q01DX001 (ip), vehicle: carboxymethylcellulose (CMC)

Measured: T/C

[Cl][Fe]([Cl])[Cl]
inactive: dose: 12.5 mg/kg/injection, schedule: Q01DX009 (ip), vehicle: saline with Tween-80 98 % of control | dose: 25.0 mg/kg/injection, schedule: Q01DX009 (ip), vehicle: saline with Tween-80 94 % of control | dose: 75.0 mg/kg/injection, schedule: Q01DX001 (ip), vehicle: saline 96 % of control | [1] 93 % of control | dose: 150.0 mg/kg/injection, schedule: Q01DX001 (ip), vehicle: saline 93 % of control | [2] 94 % of control | dose: 300.0 mg/kg/injection, schedule: Q01DX001 (ip), vehicle: saline 98 % of control | [3] 105 % of control

CCCCCCCCCCCCCCCCNc1cc(C)cc(C)c1
inactive: [4] 96 % of control | [5] 95 % of control | [6] 101 % of control

CC1(C)OC2C(C(=O)NO)OC(n3cnc4c(N)ncnc43)C2O1 (centres undefined)
inactive: dose: 100.0 mg/kg/injection, schedule: Q01DX005 (ip), vehicle: saline 101 % of control | dose: 200.0 mg/kg/injection, schedule: Q01DX005 (ip), vehicle: saline 101 % of control

C=CCC(CCCCCCCCCCC)C(=O)O (centres undefined)
inactive: dose: 100.0 mg/kg/injection, schedule: Q01DX001 (ip), vehicle: saline with Tween-80 111 % of control | dose: 200.0 mg/kg/injection, schedule: Q01DX001 (ip), vehicle: saline with Tween-80 97 % of control | dose: 400.0 mg/kg/injection, schedule: Q01DX001 (ip), vehicle: saline with Tween-80 90 % of control

CC[NH-].[Cl][Pt+2][Cl].[NH2-]
inactive: dose: 0.37 mg/kg/injection, schedule: Q01DX009 (ip), vehicle: other 111 % of control | dose: 0.75 mg/kg/injection, schedule: Q01DX001 (ip), vehicle: other 107 % of control | dose: 0.75 mg/kg/injection, schedule: Q01DX009 (ip), vehicle: other 114 % of control | dose: 1.5 mg/kg/injection, schedule: Q01DX001 (ip), vehicle: other 111 % of control | dose: 3.0 mg/kg/injection, schedule: Q01DX001 (ip), vehicle: other 114 % of control
active: dose: 3.0 mg/kg/injection, schedule: Q01DX009 (ip), vehicle: other 157 % of control

Cc1ccc(S(=O)(=O)NN=C(C2=CCCCC2)C2=CCCCC2)cc1
inactive: [7] 94 % of control | [8] 93 % of control | [9] 93 % of control

CCOC(=O)CC(=O)CC(C)C
inactive: [4] 101 % of control | [5] 97 % of control | [6] 88 % of control

O=C1C=CC2(CCC23C=CC(=O)O3)O1 (centres undefined)
inactive: dose: 13.0 mg/kg/injection, schedule: Q01DX Z (ip), vehicle: saline 96 % of control | dose: 20.0 mg/kg/injection, schedule: Q01DX Z (ip), vehicle: saline 102 % of control | dose: 30.0 mg/kg/injection, schedule: Q01DX Z (ip), vehicle: saline 104 % of control | dose: 45.0 mg/kg/injection, schedule: Q01DX Z (ip), vehicle: saline 102 % of control and 109 % of control

CC(=O)Nc1cccc(/C=C/C=C/c2ccc([N+](=O)[O-])cc2)c1
inactive: [1] 93 % of control | [2] 90 % of control | [3] 90 % of control

CN(CCC#N)c1ccc(C=C(C#N)C#N)cc1
inactive: [10] 92 % of control | [11] 95 % of control | [12] 97 % of control

Cc1nn(C)c(C#N)c1[N+](=O)[O-]
inactive: [4] 98 % of control | [5] 100 % of control

O=P(NCCO)(OCC(Br)CBr)OCC(Br)CBr (centres undefined)
inactive: dose: 50.0 mg/kg/injection, schedule: Q01DX009 (ip), vehicle: saline with Tween-80 94 % of control | [13] 102 % of control | [14] 98 % of control

CN(Cc1cnc2cc(N)[nH]c(=O)c2n1)c1ccc(C(=O)NC(CCC(=O)O)C(=O)O)cc1 (centres undefined)
inactive: dose: 100.0 mg/kg/injection, schedule: Q04DX002 (ip), vehicle: water 94 % of control | dose: 200.0 mg/kg/injection, schedule: Q04DX002 (ip), vehicle: water 99 % of control | dose: 400.0 mg/kg/injection, schedule: Q04DX002 (ip), vehicle: water 118 % of control

COc1ccc(CNCCNCc2ccc(OC)c(OC)c2)cc1OC
inactive: [13] 97 % of control | [1] 100 % of control | [14] 102 % of control | [2] 93 % of control | dose: 400.0 mg/kg/injection, schedule: Q01DX009 (ip), vehicle: saline with Tween-80 106 % of control | [3] 105 % of control

CCCCN(C)N=Nc1ccc(S(N)(=O)=O)cc1
inactive: dose: 30.0 mg/kg/injection, schedule: Q01DX Z (ip), vehicle: carboxymethylcellulose (CMC) 92 % of control | dose: 60.0 mg/kg/injection, schedule: Q01DX Z (ip), vehicle: carboxymethylcellulose (CMC) 92 % of control | dose: 90.0 mg/kg/injection, schedule: Q01DX Z (ip), vehicle: carboxymethylcellulose (CMC) 105 % of control

Cc1c(Cl)cccc1NC(=O)c1ccccc1Cl
inactive: [10] 94 % of control | [7] 122 % of control | [11] 94 % of control | [8] 108 % of control | [12] 95 % of control | [9] 108 % of control

CCOC(=O)COc1ccc2c(C)c(CCN(CC)CC)c(=O)oc2c1
inactive: dose: 100.0 mg/kg/injection, schedule: Q01DX001 (ip), vehicle: saline 103 % of control | dose: 200.0 mg/kg/injection, schedule: Q01DX001 (ip), vehicle: saline 92 % of control | dose: 400.0 mg/kg/injection, schedule: Q01DX001 (ip), vehicle: saline 96 % of control

Cc1cc(C(=O)O)c2c([nH]1)c(C)cc1nc3ccccc3c12
inactive: [15] 101 % of control | [16] 101 % of control | [17] 108 % of control | [18] 95 % of control

Cc1ccc(Cl)cc1NC(=O)Nc1ccccc1Cl
inactive: [10] 92 % of control | [4] 101 % of control | [11] 91 % of control | [5] 95 % of control | [6] 93 % of control

OC(Cc1ccnc2ccccc12)C(Cl)(Cl)Cl (centres undefined)
inactive: dose: 100.0 mg/kg/injection, schedule: Q01DX009 (ip), vehicle: saline 95 % of control | dose: 200.0 mg/kg/injection, schedule: Q01DX009 (ip), vehicle: saline 101 % of control | dose: 400.0 mg/kg/injection, schedule: Q01DX009 (ip), vehicle: saline 95 % of control

CC1(c2ccc(F)cc2)OC(=O)c2c1ccc1ccccc21 (centres undefined)
inactive: dose: 100.0 mg/kg/injection, schedule: Q04DX002 (ip), vehicle: Klucel (hydroxypropylcellulose) (HPC) 101 % of control | dose: 200.0 mg/kg/injection, schedule: Q04DX002 (ip), vehicle: Klucel (hydroxypropylcellulose) (HPC) 94 % of control | dose: 400.0 mg/kg/injection, schedule: Q04DX002 (ip), vehicle: Klucel (hydroxypropylcellulose) (HPC) 101 % of control

CN(C)CCC(C)(N)c1cccc2ccccc12 (centres undefined)
inactive: [7] 113 % of control | [8] 107 % of control

NCCCCCc1ccccc1
inactive: dose: 50.0 mg/kg/injection, schedule: Q04DX003 (ip), vehicle: saline 109 % of control

COC(=O)c1c(C(N)=O)n[nH]c1C1OC(COCc2ccccc2)C(OCc2ccccc2)C1OCc1ccccc1 (centres undefined)
inactive: dose: 100.0 mg/kg/injection, schedule: Q01DX005 (ip), vehicle: saline with Tween-80 102 % of control | dose: 200.0 mg/kg/injection, schedule: Q01DX005 (ip), vehicle: saline with Tween-80 100 % of control

O=C1CCC2c3ccccc3-c3cccc1c32 (centres undefined)
inactive: [15] 100 % of control | [16] 91 % of control | [17] 96 % of control | [18] 102 % of control

NC1CCCN(Cc2ccccc2)C1 (centres undefined)
inactive: dose: 75.0 mg/kg/injection, schedule: Q04DX003 (ip), vehicle: saline 104 % of control | dose: 150.0 mg/kg/injection, schedule: Q04DX003 (ip), vehicle: saline 100 % of control

Cc1cc(N=Nc2ccc(N(C)C)cc2)ccn1
inactive: [4] 101 % of control | [5] 102 % of control | [6] 91 % of control

Nc1ncnc(N)c1NC(=O)c1ccc(C(=O)c2cccc([N+](=O)[O-])c2)cc1
inactive: dose: 100.0 mg/kg/injection, schedule: Q01DX001 (ip), vehicle: gum acacia 97 % of control | dose: 200.0 mg/kg/injection, schedule: Q01DX001 (ip), vehicle: gum acacia 100 % of control | dose: 400.0 mg/kg/injection, schedule: Q01DX001 (ip), vehicle: gum acacia 93 % of control

CN(C)P(=O)(Nc1ccc(Cl)cc1)Nc1ccc(Cl)cc1
inactive: [4] 94 % of control | [5] 96 % of control | [6] 100 % of control
